The values below come from patent publication US8476302B2, “α-ketoamide derivatives useful endothelial lipase inhibitors” (Janssen Pharmaceutica N.V., priority 2010, dated 2013).

Where “and” joins values, the source holds several entries; their conditions need not be identical. Equal entries are not always repeated.

As a reminder, the IC50 is the concentration that inhibits the measured activity by half. A higher IC50 goes with weaker potency in that assay.

The target of test [1] is T1, human endothelial lipase (EL) (Homo sapiens, UniProt Q9Y5X9).
T1 construct: host or cells: cells expressing human endothelial lipase
T1 sequence (Q9Y5X9 21-500): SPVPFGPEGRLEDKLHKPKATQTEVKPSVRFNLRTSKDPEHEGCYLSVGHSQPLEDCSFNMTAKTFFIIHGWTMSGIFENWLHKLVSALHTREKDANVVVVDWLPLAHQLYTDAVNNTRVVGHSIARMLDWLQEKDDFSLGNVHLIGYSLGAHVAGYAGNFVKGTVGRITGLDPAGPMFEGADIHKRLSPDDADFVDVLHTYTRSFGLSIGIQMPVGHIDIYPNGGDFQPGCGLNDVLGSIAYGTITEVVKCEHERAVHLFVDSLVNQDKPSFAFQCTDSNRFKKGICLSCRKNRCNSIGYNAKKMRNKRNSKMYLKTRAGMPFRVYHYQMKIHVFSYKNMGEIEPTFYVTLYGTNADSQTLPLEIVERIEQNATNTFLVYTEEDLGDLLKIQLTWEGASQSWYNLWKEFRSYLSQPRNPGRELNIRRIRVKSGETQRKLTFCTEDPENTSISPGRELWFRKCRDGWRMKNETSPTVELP
In words: Endothelial Lipase Assay, cell surface lipase activity (human). The format is cell-based. The conditions noted are these: cells expressing human EL, PLA1 substrate 10 μM, fluorescence reaction rate; several values in a cell are repeat determinations. The method, then: (§1) Endothelial Lipase Assay (Human/Mouse)
(§2) To assay for cell surface lipase activity, cells expressing human endothelial lipase (EL) or LPL were plated in CellBIND® 384-well plates (Corning, Lowell, Mass.) in 25 μL serum free medium at a density of 2000 cells/well. After 18-24 hours incubation at 37° C., the medium was removed and replaced with 15 μL assay buffer [Hank's Buffered Saline Solution with 25 mM HEPES pH 7.2] and 15 μL PLA1 for a final concentration of 10 μM using a Multidrop reagent dispenser. Fluorescence signal was monitored for 30 min at 37° C. on a Safire II plate reader in kinetic mode (60 cycles, kinetic interval: 30 seconds) with an excitation wavelength of 490 nm and an emission wavelength of 515 nm. Linear regression of the fluorescence intensity collected from 480 to 1500 seconds was used to calculate the reaction rate (the slope) and the slopes were used to calculate IC50 values where appropriate. The amount of BODIPY-labeled product generated was calculated at the 30 min time point as determined from standard curve analysis of purified BODIPY FL C5. In all studies using the inhibitor Ebelactone B, consistent results were obtained when it was dissolved as a stock in DMSO, immediately before use.

Test [2] has as its target T2, Mouse EL (Mus musculus, UniProt Q9WVG5).
T2 construct: host or cells: not described for mouse EL
T2 sequence (Q9WVG5 21-500): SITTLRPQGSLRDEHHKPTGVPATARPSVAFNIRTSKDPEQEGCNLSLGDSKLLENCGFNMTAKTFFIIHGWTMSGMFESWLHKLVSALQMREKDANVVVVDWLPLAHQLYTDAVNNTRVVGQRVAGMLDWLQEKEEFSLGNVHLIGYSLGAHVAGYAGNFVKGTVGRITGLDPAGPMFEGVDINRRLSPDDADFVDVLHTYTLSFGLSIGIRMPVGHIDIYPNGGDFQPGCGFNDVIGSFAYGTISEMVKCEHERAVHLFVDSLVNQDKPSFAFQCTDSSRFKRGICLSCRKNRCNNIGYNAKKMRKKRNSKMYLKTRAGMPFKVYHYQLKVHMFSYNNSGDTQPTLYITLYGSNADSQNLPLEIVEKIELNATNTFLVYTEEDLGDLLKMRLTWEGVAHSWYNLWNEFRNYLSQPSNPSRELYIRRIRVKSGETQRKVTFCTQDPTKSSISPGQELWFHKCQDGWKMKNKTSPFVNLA
In words: Endothelial Lipase Assay, cell surface lipase activity (mouse). The format is cell-based. The conditions noted are these: PLA1 substrate 10 μM, fluorescence reaction rate, several values in a cell are repeat determinations. The method, then: as §1, §2

With `O=C(CCCCCCc1ccccc1F)C(=O)NCc1nnc(-c2ccccc2)o1` [Compound 51], the IC50 in test [1] worked out at 607 nM; in test [2], 802 nM.
For `O=C(CCCCCOc1ccccc1)C(=O)NCc1nnc(-c2ccc(Oc3ccccc3)cc2)o1` [Compound 52], the figures for the IC50 in test [1] and in test [2] were 2610 nM and 1800 nM, respectively.
For `O=C(CCCCCOc1cccc(F)c1)C(=O)NCc1nnc(-c2ccccc2)o1` [Compound 53], in that order: 4740 nM and 5910 nM.
`O=C(CCCCCOc1cccc(F)c1)C(=O)NCc1nnc(-c2ccc3ccccc3c2)o1` [Compound 54]: the IC50 in test [1] was 916 nM; in test [2] it was 802 nM.
Consider `O=C(CCCCCOc1cccc(F)c1)C(=O)NCc1nnc(-c2ccc(Oc3ccccc3)cc2)o1` [Compound 55], for which the IC50 in test [1] worked out at 340 nM; in test [2] it was 384 nM.
For the compound `O=C(CCCCCOc1cccc(F)c1)C(=O)NCc1nnc(-c2cccc(Oc3ccccc3)c2)o1` [Compound 56], the values for the 50% inhibitory concentration (IC50) in test [1] and in test [2] were 3250 nM and 2290 nM, respectively.
As for `O=C(CCCCCOc1cccc(F)c1)C(=O)NCc1nnc(-c2ccc(Oc3ccc(Cl)cc3)cc2)o1` [Compound 57], the IC50 was 3780 nM in test [1] and 1100 nM in test [2].
For `O=C(CCCCCCc1ccccc1)C(=O)NCc1nnc(-c2cccc(Oc3ccccc3)c2)o1` [Compound 58], in that order: 4890 nM and 1720 nM.
For `O=C(CCCCCCc1ccccc1)C(=O)NCc1nnc(-c2ccc(Oc3ccc(Cl)cc3)cc2)o1` [Compound 59], in that order: 2590 nM and 1110 nM.
On to `O=C(CCCCCOc1ccccc1)C(=O)NCc1nnc(-c2cccc(Oc3ccccc3)c2)o1` [Compound 60], for which the IC50 in test [1] was found to be 7120 nM; in test [2] it was 9800 nM.
On to `O=C(CCCCCOc1cccc(F)c1)C(=O)NCc1nnc(-c2ccc3c(c2)Oc2ccccc2O3)o1` [Compound 62], for which the IC50 in test [1] worked out at 5200 nM; in test [2], 2720 nM.
In the same order, the values of `COc1cccc(OCCCCCC(=O)C(=O)NCc2nnc(-c3ccccc3)o2)c1` [Compound 63] are 5450 nM and 6120 nM.
As to `COc1cccc(OCCCCCC(=O)C(=O)NCc2nnc(-c3cccc(Oc4ccccc4)c3)o2)c1` [Compound 64], the half-inhibitory concentration (IC50) in test [1] came out at 10900 nM; in test [2], 9980 nM.
In the case of `COc1cccc(OCCCCCC(=O)C(=O)NCc2nnc(-c3ccc(Oc4ccccc4)cc3)o2)c1` [Compound 65], the half-maximal inhibitory concentration (IC50) in test [1] is 872 nM; in test [2], 793 nM.
For `O=C(CCCCCCc1ccccc1)C(=O)NCc1nnc(-c2ccc(Oc3cccc(Cl)c3)cc2)o1` [Compound 66], the results for the IC50 in test [1] and in test [2] were 255 nM and 366 nM, respectively.
As for `O=C(CCCCCOc1cccc(F)c1)C(=O)NCc1nnc(-c2ccc(Oc3cccc(Cl)c3)cc2)o1` [Compound 67], the 50% inhibitory concentration (IC50) in test [1] came out at 640 nM; in test [2], 648 nM.
In the same order, the values of `O=C(CCCCCCc1ccccc1)C(=O)NCc1nnc(-c2ccc(OCc3ccccc3)cc2)o1` [Compound 68] are 142 nM and 124 nM.
Take `O=C(CCCCCOc1cccc(F)c1)C(=O)NCc1nnc(-c2ccc(OCc3ccccc3)cc2)o1` [Compound 69, N-((5-(4-(benzyloxy)phenyl)-1,3,4-oxadiazol-2-yl)methyl)-7-(3-fluorophenoxy)-2-oxoheptanamide]: the figures for the IC50 in test [1] and in test [2] were 272 nM and 835 nM, respectively.
Regarding `O=C(CCCCCCc1ccccc1)C(=O)NCc1nnc(-c2ccccc2)s1` [Compound 74], the IC50 in test [1] came to 219 nM; in test [2], 436 nM.
Consider `CN(c1ccc(Br)cc1)c1ccc(-c2nnc(CNC(=O)C(=O)CCCCCCc3ccccc3)o2)cc1` [Compound 75], for which the concentration for half-maximal inhibition (IC50) in test [1] turned out to be 11600 nM; in test [2], 11200 nM.
As to `O=C(CCCCCCc1ccccc1)C(=O)NCc1nnc(-c2ccc(OCc3cccc(Cl)c3)cc2)o1` [Compound 76], the values for the 50% inhibitory concentration (IC50) in test [1] and in test [2] were 3070 nM and 1950 nM, respectively.
On to `O=C(CCCCCCc1ccccc1)C(=O)NCc1nnc(-c2ccc(OCc3ccc(Cl)cc3)cc2)o1` [Compound 77], for which the 50% inhibitory concentration (IC50) in test [1] and in test [2] was 33300 nM each time.
For the compound `Cn1ccnc1COc1ccc(-c2nnc(CNC(=O)C(=O)CCCCCCc3ccccc3)o2)cc1` [Compound 78], the IC50 in test [1] was 944 nM; in test [2] it was 775 nM.
For `O=C(CCCCCCc1ccccc1)C(=O)NCc1nnc(-c2ccc(OCc3ccc(F)cc3)cc2)o1` [Compound 80], in that order: 600 nM and 214 nM.
With `COc1ccc(COc2ccc(-c3nnc(CNC(=O)C(=O)CCCCCCc4ccccc4)o3)cc2)cc1` [Compound 81], the IC50 was 11500 nM in test [1] and 8340 nM in test [2].
In the same order, the values of `O=C(CCCCCCc1ccccc1)C(=O)NCc1nnc(-c2ccc(OCc3cccnc3)cc2)o1` [Compound 82] are 108 nM and 133 nM.
For the compound `COC(=O)c1cccc(COc2ccc(-c3nnc(CNC(=O)C(=O)CCCCCCc4ccccc4)o3)cc2)c1` [Compound 83], the IC50 in test [1] is 121 nM; in test [2] it was 64 nM.
For `O=C(CCCCCCc1ccccc1)C(=O)NCc1nnc(-c2ccc(OCc3cccc(F)c3)cc2)o1` [Compound 84], in that order: 235 nM and 200 nM.
`O=C(CCCCCCc1ccccc1)C(=O)NCc1nnc(-c2ccc(OCc3ccccc3F)cc2)o1` [Compound 85]: the concentration for half-maximal inhibition (IC50) in test [1] came to 223 nM; in test [2], 169 nM.
For the compound `O=C(CCCCCCc1ccccc1)C(=O)NCc1nnc(-c2ccc(OCc3ccncc3)cc2)o1` [Compound 86], the results for the half-maximal inhibitory concentration (IC50) in test [1] and in test [2] were 156 nM and 72 nM, respectively.
As to `O=C(CCCCCCc1ccccc1)C(=O)NCc1nnc(-c2ccc(Oc3ncccn3)cc2)o1` [Compound 87], the 50% inhibitory concentration (IC50) in test [1] is 1450 nM; in test [2], 708 nM.
In the case of `O=C(CCCCCCc1ccccc1)C(=O)NCc1nnc(-c2ccc(OCc3ccccn3)cc2)o1` [Compound 88], the half-inhibitory concentration (IC50) in test [1] is 178 nM; in test [2], 196 nM.
With `O=C(CCCCCCc1ccccc1)C(=O)NCc1nnc(-c2ccc(OCc3ccc4ccccc4n3)cc2)o1` [Compound 89], the IC50 was 565 nM in test [1] and 232 nM in test [2].
Take `O=C(CCCCCCc1ccccc1)C(=O)NCc1nnc(-c2ccc(OCc3cc(F)cc(F)c3)cc2)o1` [Compound 90]: the IC50 in test [1] was 548 nM and 188 nM; in test [2], 80 nM and 159 nM.
`O=C(CCCCCOc1ccc(F)cc1F)C(=O)NCc1nnc(-c2ccc(Oc3ccccc3)cc2)o1` [Compound 92]: the results for the IC50 in test [1] and in test [2] were 432 nM and 911 nM, respectively.
In the case of `O=C(CCCCCOc1c(F)cccc1F)C(=O)NCc1nnc(-c2ccc(Oc3ccccc3)cc2)o1` [Compound 93], the half-maximal inhibitory concentration (IC50) was determined as 3060 nM in test [1] and 1480 nM in test [2].
Take `O=C(CCCCCOc1cc(F)ccc1F)C(=O)NCc1nnc(-c2ccc(OCc3ccccc3)cc2)o1` [Compound 94]: the half-inhibitory concentration (IC50) in test [1] came out at 936 nM; in test [2] it was 634 nM.
`O=C(CCCCCOc1cc(F)cc(F)c1)C(=O)NCc1nnc(-c2ccc(Oc3ccccc3)cc2)o1` [Compound 95]: the IC50 was 1060 nM in test [1] and 560 nM in test [2].
With `O=C(CCCCCOc1cccc(Cl)c1)C(=O)NCc1nnc(-c2ccc(OCc3ccccc3)cc2)o1` [Compound 96], the half-inhibitory concentration (IC50) stood at 1300 nM in test [1] and 666 nM in test [2].
